In patent US9682999B2, “Benzofuran compounds for the treatment of hepatitis C virus infections” (Glaxo Group Limited, priority 2011, dated 2017):

Columns and labels:
[1] = test system: sub-genomic HCV NS3-NS5B replicon genotype 1b (Huh-7 cells); assay: Replicon luciferase cell based assay, genotype 1b; conditions: Hepatitis C virus; Huh-7 genotype 1b luciferase replicon, 48 hours; read-out: EC50 GT1b
Description: (§1) 150 μL of a 1 mM stock solution in DMSO of each test compound was transferred into in the first column of a 96 well, V-bottom microplate, to give 200 times the top concentration of the required dilution series. Aliquots of 50 μL were added to each well of the remaining rows containing 100 μL of DMSO giving a 1:3 dilution series over ten points. Columns 11 and 12 contained DMSO only for the positive and negative control, respectively. 10 μL of each well were transferred into 90 μL of DMEM medium (Invitrogen #41965-039) supplemented with 5% v/v foetal calf serum, 1% v/v non-essential amino acids solution, 100 units/ml penicillin, 100 μg/ml streptomycin and 2 mM L-glutamine to give 20 times the top concentration of the required dilution series.
(§2) Suspensions were prepared from cultures of Huh-7 cells stably transfected with sub-genomic HCV NS3-NS5B replicons of either genotype 1b (the ET subline described by Pietschmann, T., Lohmann, V., Kaul, A., Krieger, N., Rinck, G., Rutter, G., Strand, D. & Bartenschlager, R., Journal of Virology, 2002, 76, 4008-4021), genotype 1a (subline 1.19 constructed in-house from H77 SG-Neo containing adaptive mutations P1496L and S2204I as described by Blight, K. J., McKeating, J. A., Marcotrigiano, J., and Rice, C. M. Journal of Virology, 2003, 77, 3180-3190), genotype 1b C316N (constructed in-house by site directed mutagenesis of the NS5B gene of the ET subline), or genotype 1a C316Y (constructed in-house by site directed mutagenesis of the NS5B gene of H77 SG-Neo containing adaptive mutations P1496L and S2204I as described by Blight, K. J., McKeating, J. A., Marcotrigiano, J., and Rice, C. M. Journal of Virology, 2003, 77, 3180-3190) linked to a firefly luciferase reporter gene. Monolayers nearing confluency were stripped from growth flasks with versene-trypsin solution and the cells re-suspended in assay medium comprising DMEM. 95 μL of suspension containing either 15,000 cells (genotype 1b luciferase replicon) or 20,000 cells (genotype 1a luciferase replicon) were added to all wells of a 96 well plate (Perkin Elmer, #6005686), except medium controls in column 12 of the assay plate. The cell suspension was dosed with 5 μL of compound solution and the plate was incubated for 48 hours at 37° C. in a 5% CO2 atmosphere.
(§3) For toxicity the cells in one plate were treated with Cell Titer Glo (Promega, #G7573). A solution of Cell Titer Glo was prepared according to the manufacturer's instructions, and 100 μL added to each well. The plate was then read for luminescence on an Envision. For potency a solution of Steady Glo (Promega, #E2550) was prepared according to the manufacturer's instructions and 100 μL added to each well. After a twenty minute incubation the plate was then read for luminescence on an Envision.
(§4) Potency: The luminescence values from all compound-free wells containing cells were averaged to obtain a positive control value. The mean luminescence value from the compound-free wells that had received no cells was used to provide the negative (background) control value. The readings from the wells at each compound concentration were taken and after the subtraction of the mean background from all values, were expressed as a percentage of the positive control signal. The quantifiable and specific reduction of luciferase signal in the presence of a drug is a direct measure of replicon inhibition. BioAssay Enterprise (CamebridgeSoft) with the XC50 module for curve fitting was used to plot the curve of percentage inhibition against compound concentration and derive the 50% inhibitory concentration (EC50) for the compound. EC50 is the effective concentration, that is, the concentration of compound where 50% maximal effect is observed. The EC50 values of two identical plates were averaged. The results are presented in Table 1 as EC50 for genotypes (GT) 1a, 1b, 1b 316N and 1a 316Y.

[2] = test system: sub-genomic HCV NS3-NS5B replicon genotype 1a (Huh-7 cells); assay: Replicon luciferase cell based assay, genotype 1a; conditions: Hepatitis C virus; Huh-7 genotype 1a luciferase replicon, 48 hours; read-out: EC50 GT 1a
Description: as §1, §2, §3, §4

[3] = test system: sub-genomic HCV NS3-NS5B replicon genotype 1a C316Y (Huh-7 cells); assay: Replicon luciferase cell based assay, genotype 1a C316Y; conditions: Hepatitis C virus, Huh-7, 48 h, read-out: EC50 1a 316Y
Description: as §1, §2, §3, §4

[4] = test system: sub-genomic HCV NS3-NS5B replicon genotype 1b C316N (Huh-7 cells); assay: Replicon luciferase cell based assay, genotype 1b C316N; conditions: Hepatitis C virus, Huh-7, 48 h, read-out: EC50 1b 316N
Description: as §1, §2, §3, §4

Q: With `CNC(=O)c1c(-c2ccc(F)cc2)oc2cc(N(c3ccc(OCB(O)O)c(Cl)c3)S(C)(=O)=O)c(C3CC3)cc12` [Example 19, ((2-Chloro-4-(N-(5-cyclopropyl-2-(4-fluorophenyl)-3-(methylcarbamoyl)benzofuran-6-yl)methylsulfonamido)phenoxy)methyl)boronic acid] as the compound, how does the EC50 [1] read?
A: Its EC50 is 1 to 10 nM.

Q: What about the EC50 [2] of the same compound?
A: The EC50 was 1 to 10 nM.

Q: What about the EC50 [3] of the same compound?
A: Its EC50 is 1 to 10 nM.

Q: What about the EC50 [4] of the same compound?
A: The EC50 was 1 to 10 nM.

Q: Which EC50 [1] does the source give for `CNC(=O)c1c(-c2ccc(F)cc2)oc2cc(N(c3cccc(CCB(O)O)c3)S(C)(=O)=O)c(C3CC3)cc12` [Example 26, (3-(N-(5-Cyclopropyl-2-(4-fluorophenyl)-3-(methylcarbamoyl)benzofuran-6-yl)methylsulfonamido)phenethyl)boronic acid] here?
A: The EC50 was 1 to 10 nM.

Q: What about the EC50 [2] of the same compound?
A: Its EC50 is 1 to 10 nM.

Q: And the EC50 [3]?
A: Its EC50 is 200 to 1000 nM.

Q: And the EC50 [4]?
A: Its EC50 is 11 to 200 nM.

Q: How did the EC50 [1] turn out when `CNC(=O)c1c(-c2ccc(F)cc2)oc2cc(N(c3ccc(B(O)O)c(C(F)F)c3)S(C)(=O)=O)c(C3CC3)cc12` [Example 9, (4-(N-(5-cyclopropyl-2-(4-fluorophenyl)-3-(methylcarbamoyl)benzofuran-6-yl)methylsulfonamido)-2-(difluoromethyl)phenyl)boronic acid] was run?
A: The EC50 was 1 to 10 nM.

Q: And the EC50 [2]?
A: Its EC50 is 1 to 10 nM.

Q: And the EC50 [3]?
A: The EC50 was 11 to 200 nM.

Q: What about the EC50 [4] of the same compound?
A: The EC50 was 1 to 10 nM.

Q: How did the EC50 [1] turn out when `CNC(=O)c1c(-c2ccc(F)cc2)oc2cc(N(c3cc(F)c4c(c3)COB4O)S(C)(=O)=O)c(C3CC3)cc12` [Example 24, 5-Cyclopropyl-6-(N-(7-fluoro-1-hydroxy-1,3-dihydrobenzo[c][1,2]oxaborol-5-yl)methylsulfonamido)-2-(4-fluorophenyl)-N-methylbenzofuran-3-carboxamide] was run?
A: The EC50 was 1 to 10 nM.

Q: What about the EC50 [2] of the same compound?
A: The EC50 was 1 to 10 nM.

Q: And the EC50 [3]?
A: The EC50 was 11 to 200 nM.

Q: And the EC50 [4]?
A: The EC50 was 1 to 10 nM.

Q: With `CNC(=O)c1c(-c2ccc(F)cc2)oc2cc(N(c3ccc(B(O)O)cc3)S(C)(=O)=O)c(C3CC3)cc12` [Example 3, 4-(N-(5-cyclopropyl-2-(4-fluorophenyl)-3-(methylcarbamoyl)benzofuran-6-yl)methylsulfonamido)phenylboronic acid] as the compound, how does the EC50 [1] read?
A: The EC50 was 1 to 10 nM.

Q: And the EC50 [2]?
A: Its EC50 is 1 to 10 nM.

Q: What about the EC50 [3] of the same compound?
A: The EC50 was 200 to 1000 nM.

Q: What about the EC50 [4] of the same compound?
A: Its EC50 is 1 to 10 nM.

Q: How did the EC50 [1] turn out when `CNC(=O)c1c(-c2ccc(F)cc2)oc2cc(N(c3ccc4c(c3)COB4O)S(C)(=O)=O)c(C3CC3)cc12` [Example 20, 5-Cyclopropyl-2-(4-fluorophenyl)-6-(N-(1-hydroxy-1,3-dihydrobenzo[c][1,2]oxaborol-5-yl)methylsulfonamido)-N-methylbenzofuran-3-carboxamide] was run?
A: Its EC50 is 1 to 10 nM.

Q: And the EC50 [2]?
A: Its EC50 is 1 to 10 nM.

Q: What about the EC50 [3] of the same compound?
A: The EC50 was 11 to 200 nM.

Q: And the EC50 [4]?
A: The EC50 was 1 to 10 nM.

Q: `CNC(=O)c1c(-c2ccc(Cl)cc2)oc2cc(N(c3ccc(B(O)O)c(Cl)c3)S(C)(=O)=O)c(C3CC3)cc12` [Example 2, (2-Chloro-4-(N-(2-(4-chlorophenyl)-5-cyclopropyl-3-(methylcarbamoyl)benzofuran-6-yl)methylsulfonamido)phenyl)boronic acid] was tested. Which EC50 [1] did it give?
A: The EC50 was 1 to 10 nM.

Q: And the EC50 [2]?
A: Its EC50 is 1 to 10 nM.

Q: What about the EC50 [3] of the same compound?
A: Its EC50 is 1 to 10 nM.

Q: What about the EC50 [4] of the same compound?
A: Its EC50 is 1 to 10 nM.

Q: For `CNC(=O)c1c(-c2ccc(F)cc2)oc2cc(N(c3ccc(B(O)O)c(S(C)(=O)=O)c3)S(C)(=O)=O)c(C3CC3)cc12` [Example 16, (4-(N-(5-cyclopropyl-2-(4-fluorophenyl)-3-(methylcarbamoyl)benzofuran-6-yl)methylsulfonamido)-2-(methylsulfonyl)phenyl)boronic acid], which EC50 [1] is on record?
A: Its EC50 is 1 to 10 nM.

Q: And the EC50 [2]?
A: Its EC50 is 1 to 10 nM.

Q: And the EC50 [3]?
A: The EC50 was 11 to 200 nM.

Q: What about the EC50 [4] of the same compound?
A: The EC50 was 11 to 200 nM.

Q: Which results are given for `CNC(=O)c1c(-c2ccc(F)cc2)oc2cc(N(c3cccc(B(O)O)c3)S(C)(=O)=O)c(C3CC3)cc12` [Example 4, 3-(N-(5-cyclopropyl-2-(4-fluorophenyl)-3-(methylcarbamoyl)benzofuran-6-yl)methylsulfonamido)phenylboronic acid]?
A: EC50 [1]: 1 to 10 nM; EC50 [2]: 1 to 10 nM; EC50 [3]: > 1000 nM; EC50 [4]: 11 to 200 nM
